Patent US9205119B2, “Neuroprotective compositions and methods” (Rutgers, The State University of New Jersey, priority 2009, dated 2015)

How the values were obtained:
Assay type in all cases: in vivo
[1] = tested on: pMCAO mice (ipsilateral cortex degenerating neurons); experiment: Fluoro Jade B staining to determine degenerating neurons after pMCAO; conditions: 30 mg/kg 2 hr before and 6 hr after pMCAO, 24 h after MCAO
Protocol: We used brain coronal sections […] for Fluoro Jade B staining to determine degenerating neurons, as previously described. (Rajanikant, G. K., et al., Stroke, 38:3023-31 (2007)). In brief, the brain sections on glass slides were dried overnight, immersed for 3 min in 100% ethanol, for 1 min in 70% ethanol, and for 1 min in distilled water, and then incubated in a solution containing 0.01% Fluoro-Jade B (Histo-Chem Inc., Jefferson, Ark.) and 0.1% acetic acid (1:10) for 30 min on a shaker. After three 10-min washes, the slides were coverslipped, and labeled sections were visualized with a confocal laser-scanning microscope.

pMCAO mice [2] = experiment: Elevated body-swing test (EBST) after pMCAO; conditions: intraperitoneally 2 hr pre- and 6 hr post-pMCAO, 24 hr after ischemia, vehicle 66.4±4.9, pre-operated 50.55±1.05
Protocol: In addition, the elevated body-swing test (EBST), described in detail by Borlongan et al, was used by us to assess asymmetric motor behavior. (Borlongan, C. V. and Sanberg, P. R., J. Neurosci., 15:5372-8 (1995)). Mice were held by the base of the tail and elevated about 10 cm from the tabletop. The direction of body swing, defined as an upper body turn of >10° to either side, was recorded for 1 min during each of three trials. The number of left and right turns was counted, and the percentage of turns made to the side contralateral to the ipsilateral hemisphere (% right-biased swing) was determined. (Ishibashi, S., et al., Exp. Neurol., 207:302-13 (2007)). The EBST was used to detect asymmetry in motor behavior at 24 hr post-pMCAO.

[3] = tested on: pMCAO mice (permanent middle cerebral artery occlusion, focal cerebral ischemia); experiment: TTC staining to determine infarct volume after pMCAO; conditions: 30 mg/kg intraperitoneally 2 hr before and 6 hr after pMCAO, measured 24 hr post-pMCAO by TTC staining
Protocol: Human stroke typically involves disruption of blood flow to a specific region supplied often by the middle cerebral artery (MCA). The classical animal model of focal ischemia, MCA occlusion (MCAO), produces the problem of long-term vessel blockade, simulating what often occurs in human stroke. We have induced focal cerebral ischemia in mice by cauterizing the MCA. To evaluate the acute injury induced by MCAO, animals were euthanized at 24 h after MCAO, and the infarct volume was determined using 2,3,5-triphenyltetrazolium chloride (TTC) staining. (Rajanikant, G. K., et al., Stroke, 38:3023-31 (2007)). In brief, 24 hours after pMCAO, animals were deeply anesthetized with an injection of pentobarbital (70 mg/kg, i.p.) and subjected to intracardiac perfusion with 100 mL of isotonic saline delivered through an electronic pump at 100 mm Hg. The head was then removed with a small animal guillotine and the brain carefully dissected out en bloc. After a brief (<1 minute) period of cooling on a bed of ice, the brain was sliced coronally at 1-mm intervals. […] The infarct area was then quantified from the scanned images using the NIH Image J analysis software (version 1.38). […] Vehicle or various doses (3, 30, 50 or 90 mg/kg) of KB-3 or KB-3a were administered intraperitoneally 2 hr before and 6 hr after pMCAO and the infarct volume was measured at 24 hr post-pMCAO by TTC staining. […]

pMCAO mice [4] = experiment: Neurological deficit scoring (18-point scale, Garcia) after pMCAO; conditions: 30 mg/kg, 24 hr post-pMCAO, mean±SEM, vehicle 12.3±0.48, preoperative 17.5±0.29
Protocol: To determine whether KB-3a-induced reduction in infarct volume and neuronal degeneration could translate into functional recovery, neurological evaluations were performed right before the surgery and 24 hr following pMCAO. The neurobehavioral deficit scoring system consists of six tests as previously described in detail, which include: (1) spontaneous activity, (2) symmetry of four limb movement, (3) forepaw outstretching while held by tail, (4) climbing wall of wire cage, (5) reaction to touch on either side of trunk, and (6) response to vibrissae touch. (See Garcia, J. H., et al., Stroke, 26:627-34 (1995)). The neurological score given to each mouse at the completion of the evaluation is the summation of all six individual test scores. The minimum neurological score is 3 and the maximum is 18. Using the 18 point-based scale, the normal mean preoperative neurological score was 17.5±0.29.

| SMILES | reduction of Fluoro-Jade B staining within the ipsilateral cortex compared to vehicle control [1] | percent right-biased swing (EBST) (pMCAO mice [2]) [%] | reduction in infarct volume compared with vehicle-treated group [3] | neurological score (18 point-based scale) (pMCAO mice [4]) |
| --- | --- | --- | --- | --- |
| CC(=O)Oc1cc(C)c(OC(C)=O)c(CC=C(C)CCC=C(C)CCC=C(CCC=C(C)C)C(=O)O)c1 [KB-3a, 1,4-diacetyl-sargahydroquinoic acid] | approximately 50% | 52.16±1.8 | approximately 54% | 17±0.41 |
| CC(C)=CCC/C(=C/CC/C(C)=C/CC/C(C)=C/Cc1cc(O)cc(C)c1O)C(=O)O [KB-3, sargahydroquinoic acid] | – | – | approximately 48% | – |
